From US10519211B2, “Compounds as peptidic GLP1/glucagon/GIP receptor agonists” (SANOFI, priority 2016, dated 2019)
pEC50: −log10 of the molar value.

Experiments:
[1] = test system: female diet-induced obese (DIO) C57BL/6NHsd mice; assay: Acute and chronic effects after subcutaneous treatment in female diet-induced obese (DIO) mice; type: in vivo, mouse
Description: Female C57BL/6NHsd mice were ordered group housed from Envigo RMS Inc., shipped group housed and remained group housed with shipped cage mates in shoebox caging with wood chip bedding until day 38 of the predose phase. At the study start mice were between 25-26 weeks old.
Mice were housed under vivarium conditions that included a 12 h light/dark cycle (light phase 04:00 AM-4:00 PM), room temperatures between 23-26° C. and a relative humidity between 30-70%. All animals had free access to water and a high fat diet (TD97366) for 16 weeks prior to pharmacological intervention (dosing phase). Feed was replaced with fresh feed weekly until and for the last time on day 38 of the predose phase. During the subsequent dosing phase, approximately 50% of the remaining feed were removed, replaced with fresh feed, and pellets were mixed evenly once per week.
On predose day 38, obese DIO mice were assigned to treatment groups (n=8) to match mean body masses between all DIO groups. An age-matched group with ad libitum access to a rodent maintenance diet (Teklad Global Diets Rodent 2014, pelleted) was included in the study as a lean control group. In the predosing phase from day 32 through 38, all study animals were treated with vehicle (Phosphate Buffered Saline, PBS, Gibco, without CaCl2 and MgCl2) once daily (s.c. approximately 0.2 mL/mouse).
On day 37 of the predose phase, the test article was diluted with PBS to a concentration of 100 μg/mL and aliquots of this stock solution were stored at approximately ≤−60° C. Stock aliquots were thawed for weekly use and thereafter stored in a refrigerator at approximately 4° C. The injected test article solution was prepared fresh once on each dosing day by diluting stock solution with PBS to achieve the desired concentration.
Mice were treated twice daily with a s.c. injection of PBS-vehicle or the test article for 28 days. The morning dosing was initiated and completed between 06:00 and 07:30 AM and the afternoon dosing between 2:00 and 3:30 PM. On day 28 of the dosing phase only the morning dose was administered. The applied volume was 5 ml/kg and the dose was adjusted to the most recent body mass recording of each individual.
Animals had unlimited access to water and feed during the experiment. On day 1 of the dosing phase approximately 5 μL of blood were collected via tail clips at hour 0, prior to the first s.c. dose of PBS-vehicle or test-article as well as 1, 2, 3, 4, 6, and 24 hours post-dose. Animals received the second s.c. dose of PBS-vehicle or test-article 8 hours after the first dose. The 24 hour blood collection of the blood glucose profile was performed prior to dosing on day 2. Glucose measurements were performed in whole blood and in duplicate or triplicate using Aviva glucometers.
Body mass was measured daily approximately between 06:00-07:30 AM from day 32 through 38 of the predosing phase and throughout the 28 days of the dosing phase. During the dosing phase mice were treated twice daily with either a s.c. injection of PBS-vehicle or test article.
To determine whole body fat mass Quantitative Nuclear Magnetic Resonance (QNMR) measurements were performed on predosing day 37 and on day 26 of the dosing phase. During the dosing phase mice were treated twice daily with either a s.c. injection of PBS-vehicle or test article.
On day 28 blood was collected prior to any other inlife activities for determination of plasma insulin concentrations. Then the morning dose was administered and necropsy was performed 4 hours post-dose. For this purpose animals were anesthetized with isoflurane and blood was collected by orbital bleeding.
On day 28 and 4 hours after the morning dose, blood was collected from mice under isoflurane anesthesia as described above. Then mice were killed and livers were collected and weighed.
Data are depicted as means±SEM. […] A One-Way ANOVA and Tukey Test were used for pairwise multiple comparisons of all groups (n=8/group, deviations from group size are indicated). […]

[2] = molecular target: T1, human GIP receptor (hGIP-R) (Homo sapiens, UniProt P48546); assay: cAMP response (HTRF) of HEK-293 cells stably expressing human GIP receptor; type: cell-based; settings: Table 8; cAMP formation
T1 construct: expressed in transfected cells; host or cells: HEK-293
T1 sequence (P48546 22-466): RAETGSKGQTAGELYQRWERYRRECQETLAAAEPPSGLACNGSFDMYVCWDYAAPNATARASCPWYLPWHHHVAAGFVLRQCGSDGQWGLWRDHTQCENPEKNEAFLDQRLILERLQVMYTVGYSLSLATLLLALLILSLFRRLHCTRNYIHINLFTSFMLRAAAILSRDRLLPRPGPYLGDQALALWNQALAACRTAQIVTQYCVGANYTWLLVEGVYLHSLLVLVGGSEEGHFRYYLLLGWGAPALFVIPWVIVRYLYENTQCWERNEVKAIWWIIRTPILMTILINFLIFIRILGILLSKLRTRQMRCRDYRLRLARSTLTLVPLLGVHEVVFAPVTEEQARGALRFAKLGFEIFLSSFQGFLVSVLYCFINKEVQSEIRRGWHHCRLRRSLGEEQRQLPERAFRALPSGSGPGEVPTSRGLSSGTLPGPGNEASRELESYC
Procedure, shortened: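 HEK-293 cells stably expressing the receptor, resuspended in HBSS/20 mM HEPES/0.1% BSA/2 mM IBMX at 400000 cells/ml, were exposed to increasing concentrations of peptide for 30 minutes at room temperature. Formed cAMP was measured by HTRF to give potency.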

[3] = 30 μg/kg s.c. twice daily, 28 days, in words
[4] = 30 μg/kg s.c. twice daily, day 28, in words
[5] = 30 μg/kg s.c. twice daily, in words
[6] = Table 9, twice-daily 30 μg/kg s.c., day 28, mean ± SEM

CCCCCCCCCCCCCCCC(=O)N[C@@H](CCC(=O)N[C@@H](CCC(=O)NCCCC[C@H](NC(=O)[C@H](CC(C)C)NC(=O)[C@H](CCCCN)NC(=O)[C@H](CO)NC(=O)[C@H](CC(C)C)NC(=O)[C@H](CC(=O)O)NC(=O)[C@H](CO)NC(=O)[C@@H](NC(=O)[C@H](Cc1ccccc1)NC(=O)[C@@H](NC(=O)CNC(=O)[C@H](CCC(N)=O)NC(=O)C(C)(C)NC(=O)[C@@H](N)Cc1c[nH]cn1)[C@@H](C)O)[C@@H](C)O)C(=O)N[C@@H](CCC(=O)O)C(=O)N[C@@H](CCCCN)C(=O)N[C@@H](CCC(N)=O)C(=O)N[C@@H](CCCNC(=N)N)C(=O)N[C@@H](CCC(N)=O)C(=O)NC(C)(C)C(=O)N[C@@H](CCC(=O)O)C(=O)N[C@@H](Cc1ccccc1)C(=O)N[C@H](C(=O)N[C@@H](CCC(=O)O)C(=O)N[C@@H](Cc1c[nH]c2ccccc12)C(=O)N[C@@H](CC(C)C)C(=O)N[C@@H](CCCCN)C(=O)N[C@@H](C)C(=O)NCC(=O)NCC(=O)N1CCC[C@H]1C(=O)N1CCC[C@H]1C(=O)N[C@@H](CO)C(=O)NC(C)(C)C(=O)N[C@@H](CCCCN)C(=O)N1CCC[C@H]1C(=O)N1CCC[C@H]1C(=O)N1CCC[C@H]1C(=O)N[C@@H](CCCCN)C(N)=O)[C@@H](C)CC)C(=O)O)C(=O)O [SEQ ID NO: 6, H-Aib-Q-G-T-F-T-S-D-L-S-K-L-K[gGlu-gGlu-Palm]-E-K-Q-R-Q-Aib-E-F-I-E-W-L-K-A-G-G-P-P-S-Aib-K-P-P-P-K-NH2]
Body mass compared to the DIO-Vehicle group [1, 3]: statistically significant decrease in body mass
Whole body fat mass compared to the DIO-Vehicle group [1, 3]: statistically significantly reduction in whole body fat mass
Plasma insulin concentrations compared to DIO vehicle [1, 4]: statistically significant reduction in plasma insulin concentrations
Plasma total cholesterol concentrations compared to DIO vehicle [1, 4]: statistically significant reduction in plasma total cholesterol concentrations
Liver mass on day 28 compared to DIO animals treated with vehicle [1, 5]: statistically significantly lower liver mass
Plasma alanine aminotransferase concentration on day 28 compared to DIO vehicle [1, 5]: statistically significantly lower plasma alanine aminotransferase concentration
24 hour blood glucose profile following first treatment ([1]; 30 μg/kg s.c., day 1, fed DIO mice, vs DIO control, in words): decrease in blood glucose concentrations below concentrations observed in DIO control mice
Body mass change ([1]; Table 9, twice-daily 30 μg/kg s.c., 28 days, mean ± SEM): -5.36 ± 0.36 g
Whole body fat mass change ([1]; Table 9, twice-daily 30 μg/kg s.c., QNMR predose vs day 26, mean ± SEM): -4.33 ± 0.42 g
Terminal liver mass (g) [1, 6]: +1.16 ± 0.04 g
Terminal plasma alanine aminotransferase (U/L) [1, 6]: +62.25 ± 9.79 U/L
Terminal plasma insulin (U/L) [1, 6]: +31.07 ± 5.26 U/L
Terminal plasma total cholesterol (mmol/L) [1, 6]: +5.11 ± 0.12 mmol/L
pEC50 [2]: 11.10
